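How tested: cells in 96-well plates exposed to compound for 48 hours at five concentrations. GI50 = concentration required for 50% inhibition of growth.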 The source made the active and inactive calls. Rule as the data show it: active = GI50 up to about 1.1 µM and inactive = higher.
How the values were obtained:
Assay in all cases: NCI tumour cell line growth inhibition, 48 h
OVCAR-3 = system: OVCAR-3
UO-31 = system: UO-31
NCI-H23 = system: NCI-H23
IGROV-1 = system: IGROV-1
A549 = system: A549
SNB-75 = system: SNB-75
HT-29 = system: HT-29
SF-268 = system: SF-268
Malme-3M = system: Malme-3M
A498 = system: A498
HCC 2998 = system: HCC 2998
SF-295 = system: SF-295
SK-MEL-2 = system: SK-MEL-2
K562 = system: K562
RXF 393 = system: RXF 393
KM12 = system: KM12
SNB-19 = system: SNB-19

Structure (SMILES)	GI50 (OVCAR-3)	GI50 (UO-31)	GI50 (NCI-H23)	GI50 (IGROV-1)	GI50 (A549)	GI50 (SNB-75)	GI50 (HT-29)	GI50 (SF-268)	GI50 (Malme-3M)	GI50 (A498)	GI50 (HCC 2998)	GI50 (SF-295)	GI50 (SK-MEL-2)	GI50 (K562)	GI50 (RXF 393)	GI50 (KM12)	GI50 (SNB-19)
Cn1c(=O)nc2n(-c3cc(C(F)(F)F)cc(C(F)(F)F)c3)c3ccccc3nc-2c1=O	64.7 µM (inactive)	> 100 µM (inactive)	> 100 µM (inactive)	> 100 µM (inactive)	> 100 µM (inactive)	18.8 µM (inactive)	> 100 µM (inactive)	> 100 µM (inactive)	> 100 µM (inactive)	> 100 µM (inactive)	> 100 µM (inactive)	52.1 µM (inactive)	> 100 µM (inactive)	> 100 µM (inactive)	75.7 µM (inactive)	> 100 µM (inactive)	49 µM (inactive)
C=C[C@]1(C)CCC2=C(CCC3C2(C)CCC[C@@]3(C)COC(C)=O)C1 (stereo not given in full)	17.7 µM (inactive)	18.8 µM (inactive)	22 µM (inactive)	20.7 µM (inactive)	22.8 µM (inactive)	18.1 µM (inactive)	18.7 µM (inactive)	23.4 µM (inactive)	25 µM (inactive)	25.4 µM (inactive)	17.7 µM (inactive)	17.8 µM (inactive)	14.6 µM (inactive)	16.5 µM (inactive)	22 µM (inactive)	19.3 µM (inactive)	17.6 µM (inactive)
CCOC(=O)C(=O)Nc1ccc(Cl)c(C(F)(F)F)c1	> 100 µM (inactive)	> 100 µM (inactive)	> 100 µM (inactive)	> 100 µM (inactive)	> 100 µM (inactive)	> 100 µM (inactive)	> 100 µM (inactive)	> 100 µM (inactive)	> 100 µM (inactive)		> 100 µM (inactive)	> 100 µM (inactive)	> 100 µM (inactive)	> 100 µM (inactive)	> 100 µM (inactive)		> 100 µM (inactive)
O=C1c2ccccc2NC1(c1ccccc1)c1c(-c2ccccc2)[nH]c2ccccc12 (stereo not given)	21.2 µM (inactive)	7.82 µM (inactive)	21.4 µM (inactive)	4.41 µM (inactive)	3.98 µM (inactive)	24.7 µM (inactive)	17.9 µM (inactive)			32.8 µM (inactive)	36.6 µM (inactive)	6.34 µM (inactive)	11.9 µM (inactive)	8.32 µM (inactive)	6.22 µM (inactive)	10.5 µM (inactive)	37.3 µM (inactive)
O=C(Nc1ccccc1-c1nn(CO)c(=S)n(CO)c1=O)C(F)(F)F	> 100 µM (inactive)	> 100 µM (inactive)	> 100 µM (inactive)	> 100 µM (inactive)	> 100 µM (inactive)	92.3 µM (inactive)	> 100 µM (inactive)	> 100 µM (inactive)	> 100 µM (inactive)		> 100 µM (inactive)	> 100 µM (inactive)	> 100 µM (inactive)	> 100 µM (inactive)	> 100 µM (inactive)	> 100 µM (inactive)	> 100 µM (inactive)
CC(C)C(Sc1nc(-c2ccccc2)c(-c2ccccc2)[nH]1)C(=O)N/N=C/c1ccc([N+](=O)[O-])cc1 (stereo not given)	7.19 µM (inactive)	11.3 µM (inactive)	16.7 µM (inactive)	18.2 µM (inactive)	27.3 µM (inactive)	18.8 µM (inactive)	6.44 µM (inactive)	18.5 µM (inactive)	13.9 µM (inactive)	20.5 µM (inactive)		15.8 µM (inactive)	12.5 µM (inactive)			10.9 µM (inactive)	17.3 µM (inactive)
CC(C)=CC(C(O)c1ccccc1)S(=O)(=O)c1nccn1C (stereo not given)	> 100 µM (inactive)	> 100 µM (inactive)	> 100 µM (inactive)	> 100 µM (inactive)	> 100 µM (inactive)	> 100 µM (inactive)	> 100 µM (inactive)	> 100 µM (inactive)	> 100 µM (inactive)		> 100 µM (inactive)	> 100 µM (inactive)	> 100 µM (inactive)	> 100 µM (inactive)	> 100 µM (inactive)	> 100 µM (inactive)	> 100 µM (inactive)
COC/C=C\COC	> 100 µM (inactive)	> 100 µM (inactive)		> 100 µM (inactive)	> 100 µM (inactive)	> 100 µM (inactive)	> 100 µM (inactive)		> 100 µM (inactive)		> 100 µM (inactive)	> 100 µM (inactive)	> 100 µM (inactive)	> 100 µM (inactive)	> 100 µM (inactive)	> 100 µM (inactive)	> 100 µM (inactive)
Cc1nc2c(ccc3ncccc32)[nH]1	> 100 µM (inactive)	> 100 µM (inactive)	> 100 µM (inactive)	> 100 µM (inactive)	> 100 µM (inactive)	> 100 µM (inactive)	> 100 µM (inactive)	> 100 µM (inactive)	> 100 µM (inactive)		> 100 µM (inactive)	> 100 µM (inactive)	> 100 µM (inactive)	> 100 µM (inactive)	> 100 µM (inactive)	> 100 µM (inactive)	> 100 µM (inactive)
COC12CCC(=O)C=C1c1ccccc1N2C(C)=O (stereo not given)	> 100 µM (inactive)	> 100 µM (inactive)	> 100 µM (inactive)	> 100 µM (inactive)	> 100 µM (inactive)	> 100 µM (inactive)	> 100 µM (inactive)			> 100 µM (inactive)	> 100 µM (inactive)	> 100 µM (inactive)	> 100 µM (inactive)	> 100 µM (inactive)	> 100 µM (inactive)	> 100 µM (inactive)	> 100 µM (inactive)
O=C1OC(c2ccccc2)=N/C1=C/C=C/c1ccco1	> 100 µM (inactive)	> 100 µM (inactive)	> 100 µM (inactive)	> 100 µM (inactive)	> 100 µM (inactive)		> 100 µM (inactive)	> 100 µM (inactive)	> 100 µM (inactive)		> 100 µM (inactive)	> 100 µM (inactive)	> 100 µM (inactive)	> 100 µM (inactive)	> 100 µM (inactive)	> 100 µM (inactive)	> 100 µM (inactive)
COc1cc(C2c3cc4c(cc3[C@@H](OCCN(C)C)C3COC(=O)[C@H]23)OCO4)cc(OC)c1O (stereo not given in full)	1.76 µM (inactive)	0.519 µM (active)	0.237 µM (active)	1.52 µM (inactive)	0.0655 µM (active)	0.769 µM (active)	0.902 µM (active)	0.33 µM (active)	0.388 µM (active)	0.167 µM (active)		0.145 µM (active)	1.29 µM (inactive)	0.562 µM (active)	0.396 µM (active)	0.723 µM (active)	0.207 µM (active)
O=C1c2c(nc3ccccc3c2-c2ccccc2)CN1Nc1ccccc1	> 100 µM (inactive)	> 100 µM (inactive)		> 100 µM (inactive)	> 100 µM (inactive)		> 100 µM (inactive)	> 100 µM (inactive)	> 100 µM (inactive)		> 100 µM (inactive)		> 100 µM (inactive)	> 100 µM (inactive)		> 100 µM (inactive)	
COc1ccc2nc(NC(=O)C(=O)NNC(=O)c3ccncc3)sc2c1	> 100 µM (inactive)	> 100 µM (inactive)	> 100 µM (inactive)	> 100 µM (inactive)	> 100 µM (inactive)	> 100 µM (inactive)	> 100 µM (inactive)	> 100 µM (inactive)	> 100 µM (inactive)	> 100 µM (inactive)	> 100 µM (inactive)	> 100 µM (inactive)		> 100 µM (inactive)	> 100 µM (inactive)		> 100 µM (inactive)
CCCCCCCCCc1cc(=O)c2ccc(O)cc2o1	9.38 µM (inactive)	8.85 µM (inactive)	63.5 µM (inactive)	41.2 µM (inactive)	37.6 µM (inactive)	17.2 µM (inactive)	> 100 µM (inactive)	44.8 µM (inactive)	> 100 µM (inactive)			47 µM (inactive)	10.3 µM (inactive)	14.5 µM (inactive)	31.4 µM (inactive)	46.9 µM (inactive)	44.6 µM (inactive)
CC(C)N1C(C)[C@@H](c2ccccc2)O[P@@]1(=O)CC1=CCCCC1 (stereo not given in full)	79.3 µM (inactive)	> 100 µM (inactive)	> 100 µM (inactive)	> 100 µM (inactive)	> 100 µM (inactive)	> 100 µM (inactive)	> 100 µM (inactive)	> 100 µM (inactive)	> 100 µM (inactive)	> 100 µM (inactive)	> 100 µM (inactive)	57 µM (inactive)	> 100 µM (inactive)	48.6 µM (inactive)	68.7 µM (inactive)	> 100 µM (inactive)	
CCCCN(C)CC(C(C)=O)C(c1ccccc1)c1c(O)c2ccccc2oc1=O (stereo not given)	> 100 µM (inactive)	> 100 µM (inactive)	62.2 µM (inactive)	> 100 µM (inactive)	> 100 µM (inactive)	65.2 µM (inactive)	> 100 µM (inactive)	> 100 µM (inactive)	> 100 µM (inactive)	> 100 µM (inactive)		> 100 µM (inactive)	> 100 µM (inactive)	> 100 µM (inactive)	> 100 µM (inactive)	> 100 µM (inactive)	> 100 µM (inactive)
c1ccc2c(c1)C1CCCCCC21N1CCOCC1 (stereo not given)	20.6 µM (inactive)	> 100 µM (inactive)	> 100 µM (inactive)	> 100 µM (inactive)	> 100 µM (inactive)	34.8 µM (inactive)	86.3 µM (inactive)	> 100 µM (inactive)		> 100 µM (inactive)	> 100 µM (inactive)	> 100 µM (inactive)	> 100 µM (inactive)	45.1 µM (inactive)	> 100 µM (inactive)	> 100 µM (inactive)	29.7 µM (inactive)

From ChEMBL document CHEMBL1201862, “PubChem BioAssay data set” (2004)
